Source: ChEMBL document CHEMBL1149942, “Characterization of the taxol structure-activity profile for the locus of the A-ring side chain” (1994)

Tests used:
J774 = assay: In vitro cytotoxicity against J774.2 cells after 72 hr incubation.; assay type: functional; conditions: Mus musculus, J774, 72 h; read-out: ED50 (the source's name)
[1] = Activity in calf brain microtubule protein assembly assay.; assay type: functional, Bos taurus
J774.2 = assay: Compound was tested for cytotoxicity against J774.2 cells, concentration required to inhibit cell division by 50% after 72 hr incubation; assay type: functional; conditions: Mus musculus, J774.2, 72 h; read-out: ED50 (the source's name)

SMILES | EC50 (J774) [µM] | Assembly [1] [%] | EC50 (J774.2) [µM]
CC(=O)O[C@H]1C(=O)[C@@]2(C)C([C@H](OC(=O)c3ccccc3)[C@]3(O)C[C@H](OC(=O)[C@H](O)[C@@H](NC(=O)c4ccc(C(=O)c5ccccc5)cc4)c4ccccc4)C(C)=C1C3(C)C)[C@]1(OC(C)=O)CO[C@@H]1C[C@@H]2O (some centres not stated) | 1.5 | 39 | 
CC(=O)O[C@H]1C(=O)[C@@]2(C)C([C@H](OC(=O)c3ccccc3)[C@]3(O)C[C@H](OC(=O)[C@H](O)CNC(=O)c4ccc(N=[N+]=[N-])cc4)C(C)=C1C3(C)C)[C@]1(OC(C)=O)CO[C@@H]1C[C@@H]2O (some centres not stated) | 20 | 25 | 
CC(=O)O[C@H]1C(=O)[C@@]2(C)C([C@H](OC(=O)c3ccccc3)[C@]3(O)C[C@H](OC(=O)[C@H](O)CNC(=O)c4ccccc4)C(C)=C1C3(C)C)[C@]1(OC(C)=O)CO[C@@H]1C[C@@H]2O (some centres not stated) | 20 | 60 | 
CC(=O)O[C@H]1C(=O)[C@@]2(C)C([C@H](OC(=O)c3ccccc3)[C@]3(O)C[C@H](OC(=O)[C@H](O)[C@@H](NC(=O)OCc4ccccc4)c4ccccc4)C(C)=C1C3(C)C)[C@]1(OC(C)=O)CO[C@@H]1C[C@@H]2O (some centres not stated) | 0.19 | 94 | 
CC(=O)O[C@H]1C(=O)[C@@]2(C)C([C@H](OC(=O)c3ccccc3)[C@]3(O)C[C@H](OC(=O)[C@H](O)CNC(=O)C(C)(C)C)C(C)=C1C3(C)C)[C@]1(OC(C)=O)CO[C@@H]1C[C@@H]2O (some centres not stated) | 40 | 28 | 
CC(=O)O[C@H]1C(=O)[C@@]2(C)C([C@H](OC(=O)c3ccccc3)[C@]3(O)C[C@H](OC(=O)[C@H](O)[C@@H](NC(=O)c4ccc(N=[N+]=[N-])cc4)c4ccccc4)C(C)=C1C3(C)C)[C@]1(OC(C)=O)CO[C@@H]1C[C@@H]2O (some centres not stated) | 0.28 | 90 | 
CC(=O)O[C@H]1C(=O)[C@@]2(C)C([C@H](OC(=O)c3ccccc3)[C@]3(O)C[C@H](OC(=O)[C@H](O)[C@@H](NC(=O)c4ccc(C(C)=O)cc4)c4ccccc4)C(C)=C1C3(C)C)[C@]1(OC(C)=O)CO[C@@H]1C[C@@H]2O (some centres not stated) | 1.6 | 84 | 
CC(=O)O[C@H]1C(=O)[C@@]2(C)C([C@H](OC(=O)c3ccccc3)[C@]3(O)C[C@H](OC(=O)[C@H](O)CNC(=O)OC(C)(C)C)C(C)=C1C3(C)C)[C@]1(OC(C)=O)CO[C@@H]1C[C@@H]2O (some centres not stated) | 2 | 51 | 
CC(=O)O[C@H]1C(=O)[C@@]2(C)C([C@H](OC(=O)c3ccccc3)[C@]3(O)C[C@H](OC(=O)[C@H](O)[C@@H](NC(=O)c4ccccc4O)c4ccccc4)C(C)=C1C3(C)C)[C@]1(OC(C)=O)CO[C@@H]1C[C@@H]2O (some centres not stated) | 0.56 | 93 | 
CCCCCC(=O)NC[C@@H](O)C(=O)O[C@H]1C[C@@]2(O)[C@@H](OC(=O)c3ccccc3)C3[C@](C)(C(=O)[C@H](OC(C)=O)C(=C1C)C2(C)C)[C@@H](O)C[C@H]1OC[C@@]31OC(C)=O (some centres not stated) |  | 34 | 26
CC(=O)O[C@H]1C(=O)[C@@]2(C)C([C@H](OC(=O)c3ccccc3)[C@]3(O)C[C@H](OC(=O)[C@H](O)CNC(=O)c4ccc5ccccc5c4)C(C)=C1C3(C)C)[C@]1(OC(C)=O)CO[C@@H]1C[C@@H]2O (some centres not stated) |  | 28 | 26
CC(=O)O[C@H]1C(=O)[C@@]2(C)C([C@H](OC(=O)c3ccccc3)[C@]3(O)C[C@H](OC(=O)[C@H](O)CNC(=O)C4CCCCC4)C(C)=C1C3(C)C)[C@]1(OC(C)=O)CO[C@@H]1C[C@@H]2O (some centres not stated) | 16 | 33 | 
CC(=O)O[C@H]1C(=O)[C@@]2(C)C([C@H](OC(=O)c3ccccc3)[C@]3(O)C[C@H](OC(=O)[C@H](O)CNC(=O)OCc4ccccc4)C(C)=C1C3(C)C)[C@]1(OC(C)=O)CO[C@@H]1C[C@@H]2O (some centres not stated) | 16 | 20 | 
CC(=O)O[C@H]1C(=O)[C@@]2(C)C([C@H](OC(=O)c3ccccc3)[C@]3(O)C[C@H](OC(=O)[C@H](O)[C@@H](NC(=O)c4ccc(C(F)(F)F)cc4)c4ccccc4)C(C)=C1C3(C)C)[C@]1(OC(C)=O)CO[C@@H]1C[C@@H]2O (some centres not stated) | 0.9 | 80 | 
CC(=O)O[C@H]1C(=O)[C@@]2(C)C([C@H](OC(=O)c3ccccc3)[C@]3(O)C[C@H](OC(=O)[C@H](O)CNC(=O)C45CC6CC(CC(C6)C4)C5)C(C)=C1C3(C)C)[C@]1(OC(C)=O)CO[C@@H]1C[C@@H]2O (some centres not stated) | 11 | 24 | 
CC(=O)O[C@H]1C(=O)[C@@]2(C)C([C@H](OC(=O)c3ccccc3)[C@]3(O)C[C@H](OC(=O)[C@H](O)CNC(=O)c4ccc(C(F)(F)F)cc4)C(C)=C1C3(C)C)[C@]1(OC(C)=O)CO[C@@H]1C[C@@H]2O (some centres not stated) | 23 | 20 | 
CC(=O)O[C@@]12CO[C@@H]1C[C@H](O)[C@@]1(C)C(=O)[C@H](O)C3=C(C)[C@@H](OC(=O)[C@H](O)[C@@H](NC(=O)OC(C)(C)C)c4ccccc4)C[C@@](O)([C@@H](OC(=O)c4ccccc4)[C@H]21)C3(C)C.O.O.O [DOCETAXEL] | 0.05 | 105 | 
Nc1nc2c(ncn2[C@@H]2O[C@H](COP(=O)(O)OP(=O)(O)OP(=O)(O)O)[C@@H](O)[C@H]2O)c(=O)[nH]1 [GUANOSINE TRIPHOSPHATE] |  | 70 | 
CC(=O)O[C@H]1C(=O)[C@@]2(C)[C@H]([C@H](OC(=O)c3ccccc3)[C@]3(O)C[C@H](OC(=O)[C@H](O)[C@@H](NC(=O)c4ccccc4)c4ccccc4)C(C)=C1C3(C)C)[C@]1(OC(C)=O)CO[C@@H]1C[C@@H]2O [PACLITAXEL] | 0.09 | 100 | 
